As usually defined, the IC50 is the midpoint of a concentration-inhibition curve. The low end stands for greater potency in that assay, the high end for weaker potency in that assay.

This note sets out measurements from article PMC6720511, “Synthesis and biological evaluation of novel N-(piperazin-1-yl)alkyl-1H-dibenzo[a,c]carbazole derivatives of dehydroabietic acid as potential MEK inhibitors” (Journal of Enzyme Inhibition and Medicinal Chemistry, 2019).

Common to all, as to type: cell-based, human
Assay [1] has as its system HepG2 cells. The assay can be described thus: Cell cycle analysis (PI staining, flow cytometry). The note with it: HepG2, 2 µM (as printed in text), 48 h. How it is done:
Cell cycle distributions in HepG2 cells were determined through propidium iodide (PI) staining and analysed by flow cytometry. HepG2 cells were seeded into a six-well plate at 5 × 10^5 cell/mL and treated with different concentrations of compound 10g for 48 h. After treatment, cells were detached with 0.25% trypsin, harvested by centrifugation, washed twice with ice-cold PBS and then fixed and permeabilised with ice-cold 70% ethanol at 4 °C overnight. Ethanol was removed and the cells were washed twice with ice-cold PBS. After this, the cells were treated with 100 µL of RNase (100 µg/mL) at 37 °C for 30 min, followed by incubation with 400 µl of DNA staining solution (PI) (1 mg/mL) in the dark at 4 °C for 30 min. The samples were analyzed by a flow cytometer (Becton-Dickinson FACSCalibur, NJ, USA) and data were analysed using the FlowJo software (Becton-Dickinson & Co, Totowa, NJ, USA).
Background: A flow cytometer gives signals particle by particle.

Assay [2] deals with HepG2 cells. The assay can be described thus: ROS generation assay (DCFH-DA). As to conditions: dose-dependent. How it is done:
Reactive oxygen species (ROS) generation assay was performed by using the reactive oxygen species assay kit (Beyotime Biotech., China). Intracellular ROS generation was tested through dichlorodihydro fluorescein diacetate (DCFH-DA) assay. DCFH-DA is taken up by HepG2 cells, and then activated by esterase-mediated cleavage of acetate to form dichlorodihydro fluorescein (DCFH), which is trapped in the cells. DCFH is converted to fluorescein DCF in the presence of ROS. HepG2 cells were seeded in six-well plates and incubated with different concentrations of compound 10g for 24 h. After removing the compound solution, cells were treated with 10 µM of DCFH-DA at 37 °C for 20 min. Subsequently, the cells were washed with PBS for three times and then exposed to light. Immediately after light exposure, cell images were acquired through an inverted fluorescence microscope (Olympus 1X71 Inverted System Microscope, Olympus, Tokyo, Japan).

Assay [3] concerns HepG2 cells. The assay can be described thus: Western blot of oncosis and apoptosis markers. How it is done:
HepG2 cells were seeded at a density of 5 × 10^6 cells per well and attached for 8 h, and then treated with different concentrations of compound 10g for 48 h. After the treatment, the cells were harvested and washed twice with PBS. The harvested cells were lysed with radio-immunoprecipitation assay (RIPA) lysis buffer (Beyotime Biotech., Nantong, China) with 1% cocktail (Sigma-Aldrich, USA). Whole-cell protein lysates were prepared and centrifuged at 12,000 rpm for 10 min at 4 °C. The total proteins were determined using Bradford reagent (Bio-Rad Laboratories, Inc., USA). Exactly 40 µg of protein per lane was separated through sodium dodecyl sulfate-polyacrylamide gel electrophoresis and then transferred onto a polyvinylidene difluoride membrane (Millipore, Bedford, MA, USA). The membranes were incubated with each antibody and detected through immunoblot analysis. All of the antibodies were purchased from Cell signaling Technology, Inc. (Boston, MA, USA) and diluted in accordance with the manufacturer’s instruction. Proteins were visualized using a C-Digit® imaging system (LI-COR Biosciences, Lincoln, NE, USA).

Assay [4] has as its system SMMC-7721. Kind of assay: MTT cytotoxic assay. As to conditions: Homo sapiens, SMMC-7721, 48 h, mean value ± SD. In outline: (§1)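 Cells seeded at 2 × 10^5 cells/mL in DMEM + 10% FBS attached for 24 h, then were exposed to compounds for 48 h at 37 °C. MTT (2.5 mg/mL solution) was added for 4 h; DMSO-dissolved formazan was read at 570 nm. Normal QSG-7701 hepatocytes were tested alongside; doxorubicin was positive control.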
(Tetrazolium dyes change colour on reduction, which living cells bring about.)

For assay [5], the system named is Hep3B. Kind of assay: MTT cytotoxic assay. As to conditions: Homo sapiens, Hep3B, 48 h, mean value ± SD. The procedure, abridged:
as §1

The subject of assay [6] is HepG2. Kind of assay: MTT cytotoxic assay. The note with it: Homo sapiens, HepG2, 48 h, mean value ± SD. The procedure, abridged: as §1
The test system of assay [7] is HepG2 cells. Kind of assay: Mitochondrial membrane potential assay (JC-1). How it is done:
The JC-1 mitochondrial membrane potential assay kit (Keygene Biotech., China) was employed to measure mitochondrial depolarization in HepG2 cells. Briefly, cells cultured in six-well plates after indicated treatments were incubated with an equal volume of JC-1 staining solution (5 µg/mL) at 37 °C for 20 min and rinsed twice with PBS. Mitochondrial membrane potentials were monitored by determining the relative amounts of dual emissions from mitochondrial JC-1 monomers or aggregates using flow cytometry (Becton-Dickinson FACSCalibur, New York, USA). Mitochondrial depolarization is indicated by an increase in the pencentage of cells with low ΔΨm (green fluorescence, lower right quadrant) compared with cells with high ΔΨm (red fluorescence, upper right quadrant).

Assay [8] relates to HepG2 cells. Kind of assay: Lactate dehydrogenase (LDH) leakage assay. The note with it: HepG2, 5 µM, 24 h. How it is done:
The cell membrane integrity was determined by LDH leakage assay by using a LDH assay kit (Beyotime, China). In brief, HepG2 cells were plated on 96-well plates at the density of 5 × 10^3 cells per well and allowed to attach overnight. After being incubated with compound 10g for 24 h, the supernatants were collected and centrifuged at the speed of 1000 rpm and were subjected to LDH detection as the description in the manual. The absorbance at 490 nm was measured by a Cytation 3 Cell Imaging Multi-Mode Reader (BioTek Instruments, Inc., Winooski, VT, USA).

`CCOc1ccc2c(c1)c1c(n2CCN2CCNCC2)-c2cc(C(C)C)ccc2C2(C)CCCC(C)(C(=O)OC)C12` (centres unmarked) [Compound 10g, 2,3,4,4a,9,13c-Hexahydro-12-ethoxy-7-isopropyl-1,4a-dimethyl-9–(2-(piperazin-1-yl)ethyl)-1H-dibenzo[a,c]carbazole-1-carboxylic acid methyl ester] yielded a G0/G1 phase cells in assay [1] of 55.37%. For the same compound, in assay [1], the “percentage of cells in G2/M phase” value is on record as 20.09%. In addition, the “ROS generation (in words)” value in assay [2] was “remarkably induce ROS generation”. In assay [3], the “level of cytochrome c, caspase-3 and caspase-9 (in words)” value is given as “increased dose-dependently”. In addition, the “ratio of Bax/Bcl-2 (in words)” value in assay [3] is reported as “increased significantly”. Besides, the “calpain-1 autolysis (in words)” value in assay [3] (48 h) was “autolysed from 80 kDa event to 76 kDa event in a dose-dependent manner”. For the same compound, the “level of α-tubulin and β-actin (in words)” value in assay [3] (dose-dependent) was “significant decrease”. Further, the IC50 in assay [4] came out at 1390 ± 130 nM; in assay [5], 730 ± 80 nM; in assay [6], 510 ± 90 nM. In addition, the “percentage of cells with low ΔΨm (lower right quadrant)” value in assay [7] (HepG2, 0.2 µM) came to 5.29%; in assay [7] (HepG2, 0.5 µM), 9.47%; in assay [7] (HepG2, 1.0 µM), 15.00%. For the same compound, the “relative LDH leakage level” value in assay [8] was found to be 93.03%.
